Laboratory results as given in the NIST ThermoML archive (doi:10.1021/je500110d).
± gives the expanded uncertainty stated by the source. Each block holds one molecule with its values, some of them ahead of it.

How the values were obtained:
[1] = Molar enthalpy of transition or fusion; details: Crystal; DSC
[2] = 298.15 K, Liquid, Gas chromatography
[3] = 298.15 K, Metastable liquid, Gas chromatography

SMILES: CCCCC(CC)COC(=O)c1ccc(C(=O)OCC(CC)CCCC)cc1 (configuration not stated) [bis(2-ethylhexyl) terephthalate]
vapor or sublimation pressure [2]: 5.4e-09 ± 1e-08 kPa

vapor or sublimation pressure [3]: 2.14e-07 ± 3.1e-08 kPa
SMILES: COC(=O)c1ccc(C(=O)OC)cc1 [dimethyl 1,4-benzenedicarboxylate]

SMILES: CCCCOC(=O)c1ccccc1C(=O)OCc1ccccc1 [benzyl butyl 1,2-benzenedioate]
vapor or sublimation pressure [2]: 2e-07 ± 1e-07 kPa

SMILES: CCCCCCCCOC(=O)c1ccccc1C(=O)OCCCCCCCC [dioctyl 1,2-benzenedicarboxylate]
vapor or sublimation pressure [2]: 5.5e-09 ± 1.1e-08 kPa

SMILES: CCCCOC(=O)c1ccccc1C(=O)OCCCC [dibutyl phthalate]
vapor or sublimation pressure (333.2 K, Liquid, Transpiration method): 0.000224 ± 9e-06 kPa | vapor or sublimation pressure (338.4 K, Liquid, Transpiration method): 0.000365 ± 1.4e-05 kPa | vapor or sublimation pressure (343.4 K, Liquid, Transpiration method): 0.000586 ± 2.3e-05 kPa | vapor or sublimation pressure (348 K, Liquid, Transpiration method): 0.000838 ± 3.3e-05 kPa | vapor or sublimation pressure (353.6 K, Liquid, Transpiration method): 0.0014 ± 5e-05 kPa | vapor or sublimation pressure (358.7 K, Liquid, Transpiration method): 0.00215 ± 8e-05 kPa | vapor or sublimation pressure (363.7 K, Liquid, Transpiration method): 0.00316 ± 0.00012 kPa | vapor or sublimation pressure (368.7 K, Liquid, Transpiration method): 0.00459 ± 0.00018 kPa | vapor or sublimation pressure (373.6 K, Liquid, Transpiration method): 0.00675 ± 0.00026 kPa | vapor or sublimation pressure (378.5 K, Liquid, Transpiration method): 0.00948 ± 0.00037 kPa

SMILES: O=C(OC1CCCCC1)c1ccccc1C(=O)OC1CCCCC1 [dicyclohexyl phthalate]
vapor or sublimation pressure [3]: 8e-08 ± 2e-08 kPa | Triple point temperature (Crystal, DTA): 336.5 ± 0.7 K | Molar enthalpy of transition or fusion [1]: 7.72 ± 0.693 kcal/mol
